# Numbered stars: 1 amine (or outer) side, 2 acyl side, 3 side chain; on linkers, the order of the positions; unused ones are H or OH. Square brackets hold non-standard residues; d marks the D form. Peptide text beside a SMILES is read from it. * marks the point of attachment. ξ: configuration not given here. dCha = N[C@H](CC1CCCCC1)C(=O)O; Phe(ol) = N[C@H](CO)Cc1ccccc1; Ac5c = NC1(C(=O)O)CCCC1; Cbz = O=C(OCc1ccccc1)*; Aib = CC(C)(N)C(=O)O; CO = O=C([*:1])[*:2]; ξV = CC(C)C(N)C(=O)O
# Biological target: T1, TAFIa (Homo sapiens, UniProt Q96IY4)
# T1 construct: purchased American Diagnostica 874TAFIA
# T1 sequence (Q96IY4 115-423): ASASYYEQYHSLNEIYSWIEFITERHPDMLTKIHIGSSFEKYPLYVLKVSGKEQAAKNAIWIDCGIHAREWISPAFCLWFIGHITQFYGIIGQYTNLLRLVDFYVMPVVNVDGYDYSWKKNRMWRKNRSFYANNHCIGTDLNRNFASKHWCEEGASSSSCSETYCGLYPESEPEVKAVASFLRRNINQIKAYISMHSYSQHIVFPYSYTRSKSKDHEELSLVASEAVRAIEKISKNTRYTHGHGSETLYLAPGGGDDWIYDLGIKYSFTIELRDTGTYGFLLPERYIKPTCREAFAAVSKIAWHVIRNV
# Assay: TAFIa inhibition, Actichrome plasma TAFI activity kit (American Diagnostica)
# Type: biochemical
# Conditions: 15 min preincubation at room temperature, read at 420 nm, duplicate determination of serial dilutions
# Description: The enzymic reaction was started by adding 10 μl of TAFIa developer (prediluted 1:2 with assay buffer).
# The IC50 values were calculated from the averaged values (duplicate determination) of serial dilutions of the substance with the aid of the Softmax Pro software (version 4.8; Molecular Devices).
row,IC50 [nM],Structure (SMILES)
1,522,CC(C)C(NC(=O)[C@@H](CC1CCCCC1)NC(=O)N[C@@H](CCCCN)C(=O)O)C(=O)N[C@H](CO)Cc1ccccc1 (stereo partly shown) [Example 135] ({Lys-CO}-[dCha]-[ξV]-[Phe(ol)])
2,22900,CC(C)(C)OC(=O)[C@H](CCCCN)NS(=O)(=O)N[C@@H](CC1CCCCC1)C(=O)N[C@@H]1C[C@H]2CC[C@]1(C)C2(C)C [Example 186]
3,106,CCOC(=O)[C@@H](NC(=O)[C@@H](CC1CCCCC1)NC(=O)N[C@@H](CCCCN)C(=O)O)C(C)C [Example 49] ({Lys-CO}-[dCha]-Val-OEt)
4,31,NCCCC[C@H](NC(=O)N[C@H](CC1CCCCC1)C(=O)NC12CC3CC(CC(C3)C1)C2)C(=O)O [Example 79]
5,644,"NCCCC[C@H](NC(=O)N[C@H](CC1CCCCC1)C(=O)NCc1ccc(F)cc1F)C(=O)O [Example 11, (S)-6-Amino-2-{3-[(R)-2-cyclohexyl-1-(2,4-difluoro-benzylcarbamoyl)-ethyl]-ureido}-hexanoic acid]"
6,204,CC(C)[C@H](NC(=O)[C@@H](CCCCNC(=O)OCc1ccccc1)NC(=O)N[C@@H](CCCCN)C(=O)O)C(=O)NC(C)C(C)(C)C (stereo partly shown) [Example 126]
7,653,CC(C)CC(C)NC(=O)[C@@H](CC1CCCCC1)NC(=O)N[C@@H](CCCCN)C(=O)O (stereo partly shown) [Example 75]
8,1260,CC(CNC(=O)[C@@H](CC1CCCCC1)NC(=O)N[C@@H](CCCCN)C(=O)O)c1ccccc1 (stereo partly shown) [Example 12]
9,39,NCCCC[C@H](NC(=O)N[C@H](CC1CCCCC1)C(=O)N[C@H]1CCc2ccccc2C1)C(=O)O [Example 85]
10,19,NCCCC[C@H](NC(=O)N[C@H](CC1CCCCC1)C(=O)NC1C2CC3CC(C2)CC1C3)C(=O)O (stereo partly shown) [Example 74]
11,532,COC(=O)[C@H](Cc1c[nH]c2ccccc12)NC(=O)[C@@H](NC(=O)[C@@H](CCCCNC(=O)OCc1ccccc1)NC(=O)N[C@@H](CCCCN)C(=O)O)C(C)C [Example 134] ({Lys-CO}-[dK](Cbz)-Val-Trp-OMe)
12,9,CC1(C)[C@@H]2CC[C@@]1(C)[C@@H](NC(=O)[C@@H](CC1CCC1)NC(=O)N[C@@H](CCCCN)C(=O)O)C2 [Example 109]
13,1140,COC(=O)C1(NC(=O)[C@@H](CCCCNC(=O)OCc2ccccc2)NC(=O)N[C@@H](CCCCN)C(=O)O)CCCC1 [Example 39] ({Lys-CO}-[dK](Cbz)-[Ac5c]-OMe)
14,118,NCCCC[C@H](NC(=O)N[C@H](CC1CCCCC1)C(=O)NCC(c1ccccc1)c1ccccc1)C(=O)O [Example 28]
15,654,C[C@@H]1C(CNC(=O)[C@@H](CC2CCCCC2)NC(=O)N[C@@H](CCCCN)C(=O)O)CC2C[C@@H]1C2(C)C (stereo partly shown) [Example 84]
16,4,CC1(C)[C@@H]2CC[C@@]1(C)[C@@H](NC(=O)C(CC1CCCC1)NC(=O)N[C@@H](CCCCN)C(=O)O)C2 (stereo partly shown) [Example 111]
17,747,CC(C)[C@H](NC(=O)[C@@H](CCCCNC(=O)OCc1ccccc1)NC(=O)N[C@@H](CCCCN)C(=O)O)C(=O)NCCCc1ccccc1 [Example 113]
18,1050,CCC(C)CNC(=O)[C@@H](CC1CCCCC1)NC(=O)N[C@@H](CCCCN)C(=O)O (stereo partly shown) [Example 69]
19,167,CC1CCCC(NC(=O)[C@@H](CC2CCCCC2)NC(=O)N[C@@H](CCCCN)C(=O)O)C1C (stereo partly shown) [Example 72]
20,608,CC(C)[C@H](NC(=O)[C@@H](CCCCNC(=O)OCc1ccccc1)NC(=O)N[C@@H](CCCCN)C(=O)O)C(=O)NCc1ccc(Cl)cc1 [Example 129]
21,463,COC(=O)C(C)(C)NC(=O)[C@@H](CCCCNC(=O)OCc1ccccc1)NC(=O)N[C@@H](CCCCN)C(=O)O [Example 25] ({Lys-CO}-[dK](Cbz)-[Aib]-OMe)
22,757,NCCCC[C@H](NC(=O)N[C@H](CC1CCCCC1)C(=O)N[C@@H]1CC1c1ccccc1)C(=O)O (stereo partly shown) [Example 64]
23,140,CC(C)[C@H](NC(=O)[C@@H](NC(=O)[C@@H](CC1CCCCC1)NC(=O)N[C@@H](CCCCN)C(=O)O)C(C)C)C(N)=O [Example 137] ({Lys-CO}-[dCha]-Val-Val-NH2)
24,144,C[C@H](NC(=O)[C@@H](CCCCNC(=O)OCc1ccccc1)NC(=O)N[C@@H](CCCCN)C(=O)O)c1ccc(Cl)cc1 [Example 44]
25,1080,CC(CNC(=O)[C@@H](CCCCNC(=O)OCc1ccccc1)NC(=O)N[C@@H](CCCCN)C(=O)O)c1ccccc1 (stereo partly shown) [Example 34]
